# Laboratory results: a melting point compilation (Tetko et al.; mined from patent text by program, amines drawn as free bases though some values may be those of a salt)
# Residues, ends and D or L forms follow the SMILES beside them. *: point of attachment. NHPhenethyl = c1ccc(CCN*)cc1; Cbz = O=C(OCc1ccccc1)*
row,SMILES,melting point [°C]
1,CN1C(=O)Nc2ccccc2C12NC(=O)N(COCc1ccccc1)C2=O (configuration not stated),226 to 227
2,CC1(CO)Cc2ccccc2C1(C)C (configuration not stated),48 to 50
3,Cc1cccc2c(-c3ccc(F)cc3)onc12,134 to 136
4,COCCNC(=O)c1cccc(-c2cccc3cc(C(C)(O)c4cccc(C(F)(F)F)c4)sc23)c1 (configuration not stated),134 to 138
5,O=C(Nc1cc(C(F)(F)F)ccc1O)Nc1ccccc1C(F)(F)F,158 to 159
6,CCCCCn1nc(-c2cccc(C(F)(F)F)c2F)c(=O)c2cccc(OC)c21,82 to 84
7,CC(C)OC(=O)c1cccc(C(O)(c2ccc3c(c2)c(-c2cccc(Cl)c2)cc(=O)n3C)c2cncn2C)c1 (configuration not stated),150
8,O=C(c1ccc([N+](=O)[O-])cc1)N1Cc2ccccc2Cc2cc(Cl)ccc21,198 to 201
9,CCOC(=O)c1sc(C)c(C(=O)OCC)c1OC,109 to 111
10,O=C1CCC(N2C(=O)c3cccc(NC(=O)COc4ccccc4)c3C2=O)C(=O)N1 (configuration not stated),236 to 238
11,C[C@@H](c1ccc(-c2ncc(C(=O)N(C)C)s2)cc1)N1CC[C@](CC(C)(C)O)(c2ccccc2)OC1=O,110 to 112
12,CCCCCCCCCCCCCCCCSCC(CN)NC(=O)OC(C)(C)C (configuration not stated),46 to 47
13,CC(C)[C@@H]1CC[C@@H](C)C[C@H]1OC(=O)N1C(=O)O[C@@H](C(F)(F)F)[C@@H]1C(C)C,80 to 82
14,COc1ccc2c(c1OC)CCN(CCc1ccc([N+](=O)[O-])cc1)C2,97
15,Cc1nc(Cl)cc(NN)n1,146
16,C[C@]1(COc2ccc(N3CCC(Nc4cc(Cl)cc(Cl)c4)CC3)cc2)Cn2cc([N+](=O)[O-])nc2O1,122 to 124
17,CCn1ncc2c3noc(-c4ccc(Cl)cc4)c3cnc21,248 to 250
18,CC(C)(C)C(NCCSC12CC3CC(CC(C3)C1)C2)C(=O)O (configuration not stated),220 to 230
19,Cc1cc(C)cc(OCC(=O)c2ccccc2)c1,104 to 105
20,CCCC[C@]1(CC)CS(=O)(=O)c2cc3c(cc2[C@@H](c2ccccc2)N1)OCO3,71 to 73
21,CC(C)(C)OC(=O)N(C[C@H](O)COc1ccc(OCc2ccccc2)cc1)C1CN(C(c2ccccc2)c2ccccc2)C1,95 to 96
22,CC1=NN=C(C=Cc2ccc(F)cc2)c2cc3c(cc2C1)OCO3,141 to 144
23,OC1(c2ccc(-c3ccccn3)cc2)CN2CCC1CC2 (configuration not stated),237 to 238
24,CC1(C)C(Cl)C(=O)C1CC(Br)(Br)Br (configuration not stated),87 to 89
25,CCOc1ccc(C2SC(=N)NC2=N)cc1OCC (configuration not stated),185 to 190

row,SMILES,melting point [°C]
1,NC(=O)c1cccc(NC(=O)C(CS)Cc2ccccc2)c1 (configuration not stated),159 to 164
2,Cn1cccc1C(=O)C(C#N)C(=O)Nc1ccc(O)cc1 (configuration not stated),182 to 184
3,O=C(CCCN1CCN(c2ccc(CO)c(Cl)c2)CC1)c1ccc(Cl)cc1,137 to 139
4,CNC(=O)Nc1ccc2c(c1)C(CN1CCC(c3ccc(F)cc3)CC1)CC2 (configuration not stated),170 to 173
5,NC(=O)C1CCC(OCCCN2CCN(c3cccc4sccc34)CC2)CC1 (configuration not stated),108
6,Cc1nn(-c2ccccc2)c(C)c1CC(N)=O,169 to 170
7,CCCC(CCC)Nc1cc(C)nc(Cl)c1N,139 to 140
8,CC(=O)Nc1c(C(=O)c2ccccc2)[nH]c2ccc([N+](=O)[O-])cc12,210 to 212
9,NC(=O)CC(NC(=O)C(CO)NC(=O)CNC(=O)CNC(=O)OCc1ccccc1)C(=O)NC(Cc1ccccc1)C(=O)NCCc1ccccc1 (configuration not stated) (Cbz-GGSNF-NHPhenethyl; configuration not given here),225 to 229
10,CC(N)=C(C(=O)OC(C)(C)C)C(=S)NC(=O)c1ccccc1,107 to 110
11,COc1ccc(N(C(=O)CN2C(=O)C(Cc3n[nH]c4c3CCCC4)C(=O)N(c3ccccc3)c3ccccc32)C(C)C)cc1 (configuration not stated),170 to 173
12,O=c1c2ccccc2ccn1CCC#Cc1ccccn1,85 to 90
13,O=C1Nc2ccccc2Nc2ncccc21,295 to 296
14,CC(CO)(CO)C(=O)N1CCOCC1,95 to 97
15,N#Cc1cnn(-c2ncc(C(F)(F)F)cc2Cl)c1C=CC(=O)O,225 to 228
16,Cc1nnc2n1-c1ccccc1C(c1ccc(Cl)cc1)=NC2NC(=O)Nc1ccccn1 (configuration not stated),274 to 278
17,O=C(NCc1nc2cnc3cc(Br)ccc3c2n1CC1CCOCC1)C1CC1,140
18,COC(=O)[C@@H]1C[C@H](OS(C)(=O)=O)C(=O)[C@H]2[C@@]1(C)CC[C@H]1C(=O)O[C@H](c3ccoc3)C[C@]21C,147 to 150
19,CNC1Oc2cc(Cl)cc(-c3ccccc3F)c2O1 (configuration not stated),> 250
20,c1ccc2sc(N3CCNCC3)nc2c1,63 to 64
21,COc1ccccc1C1(C(C)C)C(=O)N(C)c2ccccc21 (configuration not stated),113 to 115
22,Cn1cnnc1C(O)(c1ccc(I)cc1)c1ccc2c(c1)C(c1cccc(Cl)c1)Nc1nnnn1-2 (configuration not stated),201
23,CCNC(=O)c1ccncc1,93 to 95
24,CCCCc1nc2cccc(C(=O)OC)c2n1Cc1ccc(-n2c(C)ccc2C#N)cc1,131 to 132
25,CC(C)C(NC(=O)OC(C)(C)C)C(=O)OC1CC(n2cc(C=CBr)c(=O)[nH]c2=O)OC1CCl (configuration not stated),87 to 88

row,SMILES,melting point [°C]
1,CC(C)n1nc(-c2sc(C(=O)NCc3ccncc3)nc2-c2ccccc2)ccc1=O,192 to 193
2,CCOC(=O)C(=O)CC(=O)C(Br)C(Br)c1ccccc1OC (configuration not stated),113 to 115
3,Nc1c(-n2cncn2)cnn1-c1c(Cl)cc(C(F)(F)F)cc1Cl,170 to 174
4,O=C(NCCCCN1C2CCC1CN(c1ccc(Cl)cc1)C2)C(F)(F)F,83 to 85
5,COc1ccccc1N(CC(=O)N(C)c1ccccc1)C(=O)CN1C(=O)c2ccccc2C1=O,199
6,COc1ccc(C2(C#N)C=C(C#N)CCC2)cc1OC1CCCC1 (configuration not stated),77 to 79
7,CCCCCCCCCCC(=O)C(=O)N[C@@H](CCC(=O)O)C(=O)O,97 to 98
8,COc1cc(F)c(C)cc1[N+](=O)[O-],71 to 74
9,Oc1ccc(Oc2ccc(I)cc2)cc1,119 to 121
10,O=C(O)c1cc(CCl)cnc1C(=O)O,170 to 172
11,O=C(O)Cn1c(=O)c(=O)[nH]c2cc(C(F)(F)F)c(-n3ccc(CNCc4ccccc4)c3)cc21,> 300
12,CCCc1c(OCCCCCC(=O)c2cc(O)c(O)c(C(C)C)c2)ccc(C(=O)O)c1O,169 to 171
13,Cc1nnc2ccc(-c3ccc(C(C)(C)C)cc3)nn12,142 to 145
14,Cc1cccc(NC(=O)Cn2c3c(c4cc(Cl)c(Cl)cc42)CCN(C(=O)OC(C)(C)C)CC3)c1C,186 to 188
15,CC(C)c1cc(-c2ccccc2)nc(-c2ccc(F)cc2)c1C=C(Br)Br,124 to 126
16,O=C(Nc1ncc[nH]1)c1cnc2c(C(F)(F)F)cccc2c1O,211
17,COc1cccc(CCN2C(=O)c3c(C)c(C)c(C)c(C)c3C2(O)c2ccc(F)cc2)c1 (configuration not stated),181
18,CCc1c(Cl)c(Oc2ncc(C(F)(F)F)cc2Cl)nn1C(=O)NC,88 to 89
19,COc1ccc(O[C@H](C)C(=O)O)c(C(=O)c2ccc(OCc3nc(-c4ccccc4)oc3C)cc2)c1,119 to 120
20,CCOC(=O)c1ccc(NC(=O)c2cccnc2)cc1,125 to 127
21,Cc1cc(-c2nnc3c4ccccc4c(OCc4ccnn4C)nn23)no1,270
22,COC(=O)NC(=O)Nc1ccc(OC)c(OC)c1,168 to 170
23,COc1cccc(CNC(=O)c2nc(OC)c3ccccc3n2)c1,129 to 130
24,O=C(c1ccccc1)c1ccc(OCCO)cc1O,92 to 94
25,COc1ccc2cc([C@H](C)C(=O)OCCO)ccc2c1,72 to 73

row,SMILES,melting point [°C]
1,O=C(NCCO)c1ccccc1S(=O)(=O)Cc1c(O[C@H](Cn2ccnc2)c2ccccc2)ccc2c1CCCC2=O,241 to 243
2,CCCc1nc2c(N)nc3cc(OCc4ccc(Cl)c(Cl)c4)ccc3c2n1CC(C)C,183 to 184
3,COc1ccc(-c2nc(C)nn2-c2ccc(S(N)(=O)=O)cc2)cc1OC,176 to 178
4,O=[N+]([O-])c1cc(-n2cccc2)ccc1F,79 to 81
5,CCOC(=O)c1cn2c3c(c(-c4cc(C)nc(C)c4)c(F)c(SCc4ccccc4)c3c1=O)OC[C@@H]2C,175 to 178
6,Cc1cc(C2=NNC(=O)CC2)ccc1CCCCNC(=O)c1cccnc1,160 to 161
7,Cc1ccc(-c2nc(O)c(-c3ccccc3)s2)cc1,252 to 255
8,COc1ccc(-c2nn(C(C)c3oc4ccccc4c(=O)c3-c3cccc(F)c3)c3ncnc(N)c23)cc1F (configuration not stated),222 to 224
9,CC(C)(C)NC(=O)[C@@H]1CCCC[C@H]1C[C@@H](O)[C@H](Cc1ccccc1)NC(=O)[C@H](CC(N)=O)NC(=O)OCc1ccccc1,195 to 199
10,O=C(C=Cc1cccc2ccccc12)C=Cc1cccc2ccccc12,128
11,Cn1c(=O)oc2cc3c(cc21)C1(CO3)C(=O)N(C(c2ccccc2)c2ccccc2)c2ccccc21 (configuration not stated),> 250
12,CC1C(=O)CCC2(C)C1CCC1C3CCC(=Cc4ccccc4Cl)C3(C)CCC12 (configuration not stated),205 to 208
13,O=CN1CCc2cc(OCC3CO3)ccc2C1 (configuration not stated),78 to 79
14,CCCCCCCCCCCC[C@]1(O)C(=O)O[C@H](C(=O)OC)[C@@]1(O)C(=O)OC (racemic),74 to 76
15,Cn1c(=O)[nH]c(=O)c2c1ncn2CC(=O)Nc1ccc(C2CCCC2)cc1,295 to 300
16,COc1ccc(C=C2c3ccccc3C(=NO)c3ccccc32)cc1O,140
17,Cc1cc(Nc2ccnc(Nc3ccc(S(=O)(=O)N(C)C4CCN(Cc5cnn(C)c5)CC4)cc3)n2)ccc1F,125 to 150
18,CCOC(=O)c1ccc2c(c1)Cc1ccc(C(=O)OCC)cc1O2,156 to 158
19,CCCCCCCCCCCCCCCCCCCNC(=O)C1CSC(c2cccnc2)N1 (configuration not stated),108 to 110
20,Cc1noc(NS(=O)(=O)c2cc(Cl)c(Cl)s2)c1Br,135 to 138
21,CCOc1cc(C(C)=O)ccc1OCCCN1CCC(c2noc3cc(F)ccc23)CC1,112 to 114
22,C[C@H](NC(=O)c1cccnc1Oc1cccnc1)c1cccs1,196 to 198
